We go through three molecules from US12673106B2, “Modulators of nuclear receptor subfamily 4 group A member 1 (NR4A1) and uses thereof” (University of Florida Research Foundation, Incorporated, priority 2020, dated 2026).

For data set [1], the target named is T1, NR4A1 (Homo sapiens, UniProt P22736). Set-up: degrade endogenous NR4A1 in T47D breast cancer cells; endogenous in cells; host or cells: T47D breast cancer cells. As to conditions: NR4A1 ligand used as warhead; cited from earlier work.
Data set [2] has as its target T1, NR4A1. Put plainly: E3 ligase-mediated NR4A1 degradation in transfected HEK293T cells (immunoblotting). To be noted: HEK293T transfected with NR4A1, with or without CRBN or VHL; 3 μM, 6 hrs. Type of data set: cell-based. Here is the method: FIG. 4A. Efficiency of NR4A1-Ps in protein degradation using 3 examples of NR4A1-Ps based on CRBN (NR-C91, 92, 93) and 4 based on VHL (NR-V03, 04, 07, 50), with NR-V04 showing the best efficacy in NR4A1 degradation. FIG. 4B. NR4A1 degradation is mediated by targeted E3 ligases. HEK293T cells were transfected with NR4A1, with or without overexpression of CRBN or VHL. 36 hrs after transfection, cells were treated with 3 μM of NR-C91 or NR-V04 for 6 hrs for immunoblotting.
Developing NR4A1-Ps. Due to the diverse function of NR4A1 in different cancer types, both agonistic and antagonistic ligands of NR4A1 are of interest in development (25). […] 4 cytosporone-B-based and 10 celastrol-based NR4A1-Ps using polyethylene glycol (PEG) linkers of various length have already been synthesized (FIG. 3 showing several examples).
A general note: In western blotting, separated proteins are transferred to a membrane and probed.

Data set [3] concerns the target T1, NR4A1. Put plainly: Degradation of endogenous NR4A1 in T47D breast cancer cells. Also on record: degrade endogenous NR4A1 in T47D breast cancer cells; endogenous in cells; host or cells: T47D breast cancer cells. Type of data set: cell-based. To be noted: 1 μM.
Data set [4] can be described thus: Toxicity and body weight in tumor-bearing mice (FIG. 11). It counts as in vivo. As to conditions: 0.75 mg/kg celastrol twice weekly for 3 weeks. The procedure:
Body weight was recorded weekly.

T1 sequence (P22736 whole entry, species assumed): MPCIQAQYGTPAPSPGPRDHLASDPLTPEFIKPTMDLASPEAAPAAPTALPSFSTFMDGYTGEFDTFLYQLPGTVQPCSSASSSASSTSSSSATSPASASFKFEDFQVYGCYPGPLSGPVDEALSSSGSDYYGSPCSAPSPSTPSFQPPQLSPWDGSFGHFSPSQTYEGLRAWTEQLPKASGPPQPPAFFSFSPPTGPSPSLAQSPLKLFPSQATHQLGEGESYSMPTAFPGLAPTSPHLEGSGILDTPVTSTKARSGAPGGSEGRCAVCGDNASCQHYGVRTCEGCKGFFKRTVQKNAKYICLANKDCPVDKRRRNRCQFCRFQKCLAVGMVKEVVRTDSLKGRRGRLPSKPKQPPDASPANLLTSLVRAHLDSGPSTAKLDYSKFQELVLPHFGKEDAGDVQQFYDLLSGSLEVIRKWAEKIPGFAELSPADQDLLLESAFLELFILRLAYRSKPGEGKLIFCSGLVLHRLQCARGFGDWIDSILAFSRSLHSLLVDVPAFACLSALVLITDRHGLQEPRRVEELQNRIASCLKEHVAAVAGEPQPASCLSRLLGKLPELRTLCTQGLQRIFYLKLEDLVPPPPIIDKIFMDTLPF

On to `CCCCCCCC(=O)c1c(O)cc(O)cc1CC(=O)OCC` [cytosporone-B], for which, at NR4A1 [1], the Kd (in general, a measure of binding affinity in units of concentration) was 1680 nM.
For the molecule `CC1=C(O)C(=O)C=C2C1=CC=C1[C@@]2(C)CC[C@@]2(C)[C@@H]3C[C@](C)(C(=O)NCCOCCNc4cccc5c4C(=O)N(C4CCC(=O)NC4=O)C5=O)CC[C@]3(C)CC[C@]12C` (stereo partly shown) [NR-C91], the “NR4A1 degradation with overexpression of the corresponding E3 ligase” value at NR4A1 [2] is on record as “overexpression of their corresponding E3 ligases facilitated NR4A1-P-mediated degradation of NR4A1”. Further, the NR4A1 degradation result at NR4A1 [3] was “led to the degradation of NR4A1, but not as efficiently as NR-V04”.
As to `CC1=C(O)C(=O)C=C2C1=CC=C1[C@@]2(C)CC[C@@]2(C)[C@@H]3C[C@](C)(C(=O)O)CC[C@]3(C)CC[C@]12C` [celastrol], the body weight result in data set [4] is listed as “significant body weight change”.
